Test results as given in PMC7822874, “Chemoprotective antimalarials identified through quantitative high-throughput screening of Plasmodium blood and liver stage parasites” (Scientific Reports, 2021).

Assay: in vitro
Details: human, hepg2-a16-cd81egfp cells
Note: reference of the scale not given here.

SMILES	viability at 3 µM (% viability)	viability at 3 µM
COc1ccccc1-c1cc(C(=O)N2CCN(S(=O)(=O)c3ccc(C)cc3)CC2)[nH]n1 [MLS000924750]	96.6%	
COc1ccc(-n2nc(C(=O)NCC(=O)N3CCN(c4ccccc4OC)CC3)c3ccccc3c2=O)c(OC)c1 [MLS000936211]	90.4%	
CCC(=O)N1CCc2cc(Br)cc(S(=O)(=O)N3CCCCC3CC)c21 (centres unmarked) [MLS000936752]	90.3%	
COc1cc(NC(=O)c2cc([N+](=O)[O-])ccc2NC(=O)CNC2CCCCC2)cc(OC)c1 [MLS000950380]	109%	
COc1cc(NC(=O)c2cc([N+](=O)[O-])ccc2NC(=O)CNC2CCCCC2C)cc(OC)c1 (centres unmarked) [MLS000950459]	90.2%	
Cc1ccc(S(=O)(=O)N2CCN(/C(S)=N/Cc3ccc4c(c3)OCO4)CC2)cc1 [MLS001002637]	97.3%	
COc1cc(C(=O)OCC(=O)N2CCCCC2C)cc(NC(=O)c2cccs2)c1OC (centres unmarked) [MLS001003405]	97.3%	
CCOc1ccc(C(C)NC(S)=NC2CCCCC2)cc1OCC (centres unmarked) [MLS001007596]	95.1%	
CC(C)CCN(CCC(C)C)CC(O)Cn1c2ccccc2c(=O)c2ccccc21 (centres unmarked) [MLS001030199]	88.6%	
CCCC(C)C(=O)Nc1ncc(S(=O)(=O)c2ccc([N+](=O)[O-])cc2)s1 (centres unmarked) [MLS001034555]	94%	
O=C(CSc1nc(Nc2ccccc2)nc(N2CCOCC2)n1)Nc1cc(Cl)ccc1O [MLS001035450]	85.3%	
O=C1c2ccccc2-n2c1nc1ccccc1c2=O [MLS001049121]	81.6%	
CNc1ccc2oc(C[C@H]3O[C@@]4(CC[C@H]3C)O[C@H]([C@H](C)C(=O)c3ccc[nH]3)[C@H](C)C[C@H]4C)nc2c1C(=O)O [MLS001056783]	19.2%	
COc1ccc(-n2nc3c(c2NC(=O)CCl)CSC3)cc1 [MLS001066697]	98.9%	
COc1cccc(NC(=O)CN(C)C(=O)c2ccc(-c3cccc(C(F)(F)F)c3)o2)c1 [MLS001071804]	90.3%	
CN(CC(=O)Nc1cccc(F)c1)C(=O)c1ccc(-c2ccc(Cl)cc2)o1 [MLS001078811]	105%	
O=C(Nc1ncccc1O)c1ccc(S(=O)(=O)Nc2ccccc2)cc1 [MLS001099437]	94.2%	
Cc1ccc(S(=O)(=O)n2nccc2-c2c(-c3ccc(Cl)cc3)noc2C)cc1 [MLS001111122]	101%	
CCCCN(C(=O)c1cccc(S(=O)(=O)N(C)c2ccc(C)cc2)c1)c1c(N)n(CCCC)c(=O)[nH]c1=O [MLS001128188]	91.7%	
Cc1ccc(-c2c(C(=O)N/N=C/c3cccc(Cl)c3)nnn2-c2nonc2N)cc1 [MLS001139410]	92.2%	

SMILES	viability at 3 µM (% viability)	viability at 3 µM
COc1cccc(NC(=O)CN(C)C(=O)c2oc3c(ccc4ccccc43)c2C)c1 [MLS001142056]	101%	
Nc1nonc1-n1nnc(C(=O)N/N=C/c2ccc(Br)cc2)c1-c1ccc2c(c1)OCO2 [MLS001142619]	89.5%	
Cc1ccc(/C=N/NC(=O)c2nnn(-c3nonc3N)c2-c2ccc3c(c2)OCO3)s1 [MLS001142659]	90.4%	
Nc1nonc1-n1nnc(C(=O)N/N=C/c2ccc(Cl)cc2)c1-c1ccc2c(c1)OCO2 [MLS001142698]	104%	
CCOc1cc(C(=O)N2CCC(CC3CC(c4ccc(Cl)cc4)=NO3)(C(=O)NCC3CCCCC3)CC2)cc(OCC)c1OCC (centres unmarked) [MLS001143937]	93.2%	
COc1ccc(NC(=O)C(c2ccc(Cl)cc2)C(C)C)cn1 (centres unmarked) [MLS001149289]	88.5%	
Cc1cc(OC(C)C(=O)NCCc2c[nH]c3ccccc23)c2c(C)cc(=O)oc2c1 (centres unmarked) [MLS001158613]	92.7%	
Cc1ccnc(NC(=O)c2cccc(S(=O)(=O)N3CCCc4ccccc43)c2)c1 [MLS001159724]	89.6%	
CCCCc1cc(=O)oc2cc(C)cc(OCC(=O)Nc3cccnc3)c12 [MLS001160046]	96.3%	
CC(Oc1ccc(F)cc1)C(=O)Nc1cc(C(F)(F)F)ccc1-n1cncn1 (centres unmarked) [MLS001160637]	101%	
CC1CC(C)CN(C(=O)c2ccc3ccccc3c2)C1 (centres unmarked) [MLS001161774]	90.9%	
C[n+]1c2ccccc2nc2ccc(NCCO)cc21.[O-][Cl+3]([O-])([O-])[O-] [MLS001164888]		97.2%
CCN(CC)CCOC(=O)c1ccc(N/C=C(/C#N)c2nc(-c3cc4ccccc4oc3=O)cs2)cc1 [MLS001164950]	105%	
COc1cnc(-c2ccccn2)nc1N(C)c1ccccc1 [MLS001166302]	90.7%	
Cc1nnsc1[S+]([O-])c1ccc(Cl)cc1 (centres unmarked) [MLS001166465]	96.9%	
CCOC(=O)C1CCN(Cc2cc(Cl)c3ccccc3c2O)CC1 [MLS001171913]	87.1%	
CC(NCc1ccccc1O)C12CC3CC(CC(C3)C1)C2 (centres unmarked) [MLS001173343]	97.5%	
OC(c1ccc(Cl)cc1)C(CN1CCOCC1)c1ccccc1 (centres unmarked) [MLS001173582]	99.6%	
C=C(C)CSc1nc2sc3c(c2c(=O)n1-c1ccccc1)CCN(C)C3 [MLS001173616]	98.7%	
COc1ccc2nc(C)cc(NCc3cccc(C(F)(F)F)c3)c2c1 [MLS001174340]	95.4%	

SMILES	viability at 3 µM (% viability)	viability at 3 µM
Cc1ccc(Nc2nnc(SCC(=O)c3ccc(O)cc3O)s2)cc1 [MLS001176347]	99.9%	
CC(C)c1ccccc1OCC(O)CN(CC(O)COc1cccc2ccccc12)C(C)C (centres unmarked) [MLS001179995]	100%	
Oc1ccc(-c2ccccc2)cc1CN1CCCCCC1 [MLS001195126]	104%	
COC(=O)C1=CN(Cc2ccc(OC)cc2)C=C(C(=O)OC)C1c1cc(OC)c(OC)c(OC)c1 [MLS001197127]	105%	
COc1ccccc1C1CC(c2ccccc2)=NN1C(=O)c1ccccc1 (centres unmarked) [MLS001197331]	96.5%	
CCOc1ccc(CCNC(=O)Nc2ccccc2)cc1OCC [MLS001197603]	99.4%	
CCOC(=O)c1c(CN2CCN(c3ccccc3)CC2)oc2cc(Br)c(O)cc12 [MLS001198242]	90.6%	
CCOc1cccc(CNCCc2c(C)[nH]c3ccc(OC(F)(F)F)cc23)c1O [MLS001198351]	70.5%	
COc1cc(OC)c(NC2=CC(=O)C(=O)c3ccccc32)cc1Cl [MLS001198657]	62%	
CCCCN(CC)CCNC(=O)c1cc2c(-c3ccc(Cl)cc3)nn(C)c2s1 [MLS001199341]	90.6%	
COc1cc2nc(Nc3ccc(C)c(C)c3)nc(N)c2cc1OC [MLS001199689]	102%	
COc1cccc(-c2c(C#N)c(N)nc3c2c(C)nn3-c2ccccc2)c1O [MLS001214341]	90.5%	
CN(C)CCCn1cnc2c(c1=N)C(c1ccccc1)c1ccc3ccccc3c1O2 (centres unmarked) [MLS001216375]	106%	
O=C(N/N=C(/c1ccccc1)c1cccnc1)c1cccc(F)c1 [MLS001224623]	32%	
O=C(Nc1ccncc1)Nc1cccc(Cl)c1Cl [MLS001224778]	96.5%	
C/C(=N\NC(=O)c1cccc(Br)c1)c1ccccn1 [MLS001232242]	81.3%	
O=C(c1ccc([N+](=O)[O-])o1)N1CCN(c2nc3c(Cl)cccc3s2)CC1 [MLS001234208]	90.1%	
COc1ccc2nc(N3CCN(C(=O)c4ccc([N+](=O)[O-])o4)CC3)sc2c1 [MLS001234236]	89.3%	
COc1cccc2sc(N3CCN(C(=O)c4ccc([N+](=O)[O-])o4)CC3)nc12 [MLS001234267]	93.6%	
